Experimental data taken from patent US10787436B2, “Inhibitors of cyclin-dependent kinase 7 (CDK7)” (Dana-Farber Cancer Institute, Inc., priority 2012, dated 2020).
Read-outs that look alike come from different tables or passages of the source. Blank lines part the entries; values can stand above or below the compound they belong to.

Tests used:
Jurkat = Jurkat (proliferation, CellTiter-Glo); assay type: cell-based; details: Homo sapiens, Jurkat; read-out: Calculated IC50, Jurkat
CDK5/p25 = CDK5/p25 (Homo sapiens (Human), UniProt Q00535); assay: Life Technologies Z'-Lyte kinase assay, CDK5/p25; assay type: biochemical; details: read-out: Calculated IC50, CDK5/p25
Sequence of CDK5/p25 (Q00535 whole entry): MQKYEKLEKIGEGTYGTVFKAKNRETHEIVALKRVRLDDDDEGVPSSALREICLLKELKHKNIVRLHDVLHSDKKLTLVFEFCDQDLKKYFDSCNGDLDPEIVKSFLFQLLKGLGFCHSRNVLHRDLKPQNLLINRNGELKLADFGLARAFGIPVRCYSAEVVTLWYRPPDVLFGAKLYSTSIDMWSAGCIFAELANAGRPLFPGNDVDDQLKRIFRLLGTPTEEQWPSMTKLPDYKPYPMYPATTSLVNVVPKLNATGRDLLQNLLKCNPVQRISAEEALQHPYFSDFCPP
Sequence of CDK5/p25 (Q15078 99-307 partner): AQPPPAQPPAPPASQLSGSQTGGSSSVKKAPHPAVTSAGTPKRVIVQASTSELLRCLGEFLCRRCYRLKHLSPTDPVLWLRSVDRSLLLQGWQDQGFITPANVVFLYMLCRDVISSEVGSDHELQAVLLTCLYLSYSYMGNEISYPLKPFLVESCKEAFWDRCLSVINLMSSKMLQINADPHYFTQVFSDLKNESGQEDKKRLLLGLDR

MLK3 = MLK3 (Homo sapiens (Human), UniProt Q16584); assay: Life Technologies LanthaScreen Eu kinase assay, MLK3; assay type: binding; details: for IC50: read-out: Calculated IC50, MLK3
Sequence of MLK3 (Q16584 whole entry): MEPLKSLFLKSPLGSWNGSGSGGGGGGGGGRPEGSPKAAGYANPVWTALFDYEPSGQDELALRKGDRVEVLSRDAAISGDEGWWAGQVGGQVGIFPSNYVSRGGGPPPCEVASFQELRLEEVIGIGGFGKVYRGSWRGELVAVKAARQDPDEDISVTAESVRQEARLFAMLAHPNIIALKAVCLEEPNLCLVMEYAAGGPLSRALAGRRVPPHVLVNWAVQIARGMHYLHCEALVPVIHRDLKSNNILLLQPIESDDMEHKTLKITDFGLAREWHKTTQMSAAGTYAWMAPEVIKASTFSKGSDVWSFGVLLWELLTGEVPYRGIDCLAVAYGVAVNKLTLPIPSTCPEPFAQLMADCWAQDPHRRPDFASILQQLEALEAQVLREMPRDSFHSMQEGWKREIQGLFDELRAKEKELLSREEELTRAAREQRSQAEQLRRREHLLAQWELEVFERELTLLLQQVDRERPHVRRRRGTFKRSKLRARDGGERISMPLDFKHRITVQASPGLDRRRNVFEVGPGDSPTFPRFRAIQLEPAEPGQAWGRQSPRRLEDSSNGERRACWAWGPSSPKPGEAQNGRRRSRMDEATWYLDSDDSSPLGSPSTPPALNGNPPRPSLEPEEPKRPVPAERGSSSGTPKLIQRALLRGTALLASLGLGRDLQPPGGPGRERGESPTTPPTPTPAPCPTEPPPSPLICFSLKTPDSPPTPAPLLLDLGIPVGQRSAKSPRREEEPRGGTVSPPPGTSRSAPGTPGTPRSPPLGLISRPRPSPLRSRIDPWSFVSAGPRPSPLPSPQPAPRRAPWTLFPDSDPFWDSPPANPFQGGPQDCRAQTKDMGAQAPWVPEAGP

CDK7 [1] = target: T1, CDK7 (Homo sapiens (Human), UniProt P50613); assay: In vitro inhibitory activity against CDK7 (Table 1); assay type: biochemical
Procedure: In vitro kinase assays with immunoprecipitated proteins (or recombinant CAK complexes) were performed as follows. Kinase reactions were performed in 25 μL of final volume of reaction buffer (50 mM Hepes, pH 7.5, 150 mM NaCl, 10 mM MgCl2, 5% glycerol, 25 μM ATP, and 10 μCi of [γ-32P]ATP). Each reaction contained 1 μg of RNAP II. Incubation was at 30° C. for 30-45 min. Reactions were terminated by addition of 5 μL of 5×SDS-PAGE sample buffer and incubated at 95° C. for 5 min. Reactions were analyzed by SDS-PAGE, and the dried gel was exposed to film or PhosphorImager plate.
Target sequence in this assay (P50613 whole entry, looked up): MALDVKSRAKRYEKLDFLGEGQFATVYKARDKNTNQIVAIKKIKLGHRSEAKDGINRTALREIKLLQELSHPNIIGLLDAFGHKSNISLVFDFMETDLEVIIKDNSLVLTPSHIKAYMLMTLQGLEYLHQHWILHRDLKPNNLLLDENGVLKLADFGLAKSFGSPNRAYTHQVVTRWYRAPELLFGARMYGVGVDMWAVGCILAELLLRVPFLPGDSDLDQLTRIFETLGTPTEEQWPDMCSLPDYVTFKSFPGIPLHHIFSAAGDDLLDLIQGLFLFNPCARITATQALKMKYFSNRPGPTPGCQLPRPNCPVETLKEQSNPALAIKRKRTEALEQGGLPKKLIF
Target sequence in this assay (P51946 whole entry partner, looked up): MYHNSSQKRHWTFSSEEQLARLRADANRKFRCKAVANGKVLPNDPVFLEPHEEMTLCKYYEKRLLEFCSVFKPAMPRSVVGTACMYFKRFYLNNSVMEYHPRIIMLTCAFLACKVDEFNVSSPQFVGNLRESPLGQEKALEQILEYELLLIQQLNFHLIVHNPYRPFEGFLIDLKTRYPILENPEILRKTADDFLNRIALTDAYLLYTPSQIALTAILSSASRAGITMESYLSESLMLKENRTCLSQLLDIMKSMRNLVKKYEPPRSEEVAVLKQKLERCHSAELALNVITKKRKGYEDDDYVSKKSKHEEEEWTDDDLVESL
Target sequence in this assay (P51948 whole entry partner, looked up): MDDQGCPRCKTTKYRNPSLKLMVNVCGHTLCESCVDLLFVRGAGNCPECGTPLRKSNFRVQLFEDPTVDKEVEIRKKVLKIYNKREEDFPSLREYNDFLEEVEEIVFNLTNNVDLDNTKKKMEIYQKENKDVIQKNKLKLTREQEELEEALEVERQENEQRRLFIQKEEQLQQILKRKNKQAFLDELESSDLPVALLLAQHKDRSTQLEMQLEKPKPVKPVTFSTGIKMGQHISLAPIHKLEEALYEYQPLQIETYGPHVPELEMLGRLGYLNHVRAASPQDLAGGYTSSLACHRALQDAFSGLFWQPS

IRAK1 = IRAK1 (Homo sapiens (Human), UniProt P51617); assay: Life Technologies Adapta kinase assay, IRAK1; assay type: biochemical; details: superscript b (footnote not given; tested at 100 nM and 1 μM)
Sequence of IRAK1 (P51617 whole entry): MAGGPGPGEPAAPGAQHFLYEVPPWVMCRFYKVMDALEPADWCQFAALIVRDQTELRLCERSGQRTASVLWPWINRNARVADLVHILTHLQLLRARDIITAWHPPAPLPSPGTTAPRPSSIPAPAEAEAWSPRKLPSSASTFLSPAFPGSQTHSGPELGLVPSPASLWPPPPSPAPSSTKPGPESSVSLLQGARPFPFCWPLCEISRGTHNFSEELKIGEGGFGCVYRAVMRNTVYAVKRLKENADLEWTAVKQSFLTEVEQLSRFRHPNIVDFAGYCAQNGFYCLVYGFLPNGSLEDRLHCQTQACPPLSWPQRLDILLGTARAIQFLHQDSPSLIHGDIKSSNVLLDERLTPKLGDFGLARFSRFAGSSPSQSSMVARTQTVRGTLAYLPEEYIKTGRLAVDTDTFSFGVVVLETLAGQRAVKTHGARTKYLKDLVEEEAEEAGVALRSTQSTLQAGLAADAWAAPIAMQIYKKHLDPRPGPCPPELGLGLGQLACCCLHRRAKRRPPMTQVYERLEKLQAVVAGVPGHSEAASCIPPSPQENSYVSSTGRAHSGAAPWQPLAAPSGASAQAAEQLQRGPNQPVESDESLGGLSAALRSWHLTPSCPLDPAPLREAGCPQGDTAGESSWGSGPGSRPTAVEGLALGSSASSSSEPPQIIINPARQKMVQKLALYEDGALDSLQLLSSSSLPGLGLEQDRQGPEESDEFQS

HL60 = assay: Proliferation assay, CellTiter-Glo, 72 hour; assay type: cell-based; details: read-out: Inhibition of proliferation, HL60
THP-1 = assay: Proliferation assay, CellTiter-Glo, 72 hour; assay type: cell-based; details: read-out: Inhibition of proliferation, THP-1
MV4-11 = assay: Proliferation assay, CellTiter-Glo, 72 hour; assay type: cell-based; details: read-out: Inhibition of proliferation, MV4-11
RS4-11 = assay: Proliferation assay, CellTiter-Glo, 72 hour; assay type: cell-based; details: read-out: Inhibition of proliferation, RS4-11
hTERT-HME1 = assay: Proliferation assay, CellTiter-Glo, 72 hour; assay type: cell-based; details: read-out: Inhibition of proliferation, hTERT-HME1
MDA-MB231 = assay: Proliferation assay, CellTiter-Glo, 72 hour; assay type: cell-based; details: read-out: Inhibition of proliferation, MDA-MB231
MCF7 = assay: Proliferation assay, CellTiter-Glo, 72 hour; assay type: cell-based; details: read-out: Inhibition of proliferation, MCF7
MCF10A = assay: Proliferation assay, CellTiter-Glo, 72 hour; assay type: cell-based; details: non-tumorigenic breast epithelial cell line, read-out: Inhibition of proliferation, MCF10A
T47D = assay: Proliferation assay, CellTiter-Glo, 72 hour; assay type: cell-based; details: breast cancer cell line, read-out: Inhibition of proliferation, T47D
SKBR3 = assay: Proliferation assay, CellTiter-Glo, 72 hour; assay type: cell-based; details: read-out: Inhibition of proliferation, SKBR3
A673 = assay: Proliferation assay, CellTiter-Glo, 72 hour; assay type: cell-based; details: read-out: Inhibition of proliferation, A673
Hs822T = assay: Proliferation assay, CellTiter-Glo, 72 hour; assay type: cell-based; details: Ewing's sarcoma cell line, read-out: Inhibition of proliferation, Hs822T
Hs863T = assay: Proliferation assay, CellTiter-Glo, 72 hour; assay type: cell-based; details: Ewing's sarcoma cell line, read-out: Inhibition of proliferation, Hs863T
RD-ES = assay: Proliferation assay, CellTiter-Glo, 72 hour; assay type: cell-based; details: Ewing's sarcoma cell line, read-out: Inhibition of proliferation, RD-ES
SK-ES = assay: Proliferation assay, CellTiter-Glo, 72 hour; assay type: cell-based; details: Ewing's sarcoma cell line, read-out: Inhibition of proliferation, SK-ES
SAOS = assay: Proliferation assay, CellTiter-Glo, 72 hour; assay type: cell-based; details: osteosarcoma cell line, read-out: Inhibition of proliferation, SAOS
MNNG-HOS Cl#5 = assay: Proliferation assay, CellTiter-Glo, 72 hour; assay type: cell-based; details: osteosarcoma cell line, read-out: Inhibition of proliferation, MNNG-HOS Cl#5
143B = assay: Proliferation assay, CellTiter-Glo, 72 hour; assay type: cell-based; details: osteosarcoma cell line, read-out: Inhibition of proliferation, 143B
CDK7 [2] = target: T1, CDK7; assay: Compound I-49 pull down from Loucy cellular lysates; assay type: binding; details: 1 μM, 4° C., 12 hours
Procedure: Precipitated proteins were washed and probed for CDK7.
(§1) Following the treatment, the cells were washed 2-fold with cold PBS and then lysed in the following lysis buffer: 50 mM TrisHCl pH 8.0, 150 mM NaCl, 1% NP-40, 5 mM EDTA, 1 mM DTT, and protease/phosphatase cocktails. Following clearance, the lysates were treated with compound I-49 for pulldown (or CDK7 antibody for IP) overnight at 4° C. The lysates were then incubated with streptavidin agarose for pulldown (or Protein G Agarose for IP) for an additional 2-3 hours at 4° C. Agarose beads were washed 5 times with a lysis buffer and then boiled in 2X SDS for 10 minutes at 95° C.
Target sequence in this assay (P50613 whole entry): as the sequence (P50613 whole entry, looked up) above

[3] = system: CDK1, CDK2, CDK4, and CDK6; assay: as above; assay type: binding
Procedure: (§2) However, cyclin K, which is known to bind to CDK12/13, did interact with I-49. […] Lysates were then probed with I-49. Precipitated proteins were washed and probed with antibodies as shown.
as §1

cyclin K = assay: as above; assay type: binding
Procedure: as §2, §1

[4] = system: patient-derived chronic lymphocytic leukemia (CLL) isolates; assay: Cell death of patient-derived CLL isolates, Annexin V staining, 24 hour; assay type: cell-based, human; details: Homo sapiens, read-out: Pro-death signaling, average EC50 values
Procedure: Clinical isolates of CLL were cultured with compounds of Formula (I) or flavopiridol and assessed for cell death after a 24 hour time course by Annexin V staining. […] Anti-proliferative effect was measured using cell titer glo analysis.
PBMCs freshly isolated from peripheral blood are seeded in 24 well plates at a volume of 0.5 ml and a concentration of 2×10^6 cells/ml. Compounds and controls are added to respective wells in a total volume of 2.5 μl. Plates are mixed gently and incubated approximately 24 hours at 37° C., 5% CO2. Apoptosis was measured in all cells from each well using the Annexin V: FITC Apoptosis Detection Kit I (BD Biosciences). Normalized % death was calculated as follows: [(% Dead Drug−% Dead DMSO)/(100%−% Dead DMSO)]×100

RNAP II occupancy = assay: RNAP II ChIP-seq in Jurkat cells; assay type: cell-based, human; details: 250 nM for 6 hours
Procedure: After the indicated treatment time, cells were crosslinked for 10 minutes at room temperature by the addition of one-tenth of the volume of 11% formaldehyde solution (11% formaldehyde, 50 mM Hepes (pH 7.3), 100 mM NaCl, 1 mM EDTA (pH 8.0), 0.5 mM EGTA (pH 8.0)) to the growth media followed by two washes with PBS. Following the final PBS wash, supernatant was aspirated, and the cell pellet was flash frozen in liquid nitrogen. Frozen crosslinked cells were stored at −80° C.
50 μl of Dynal magnetic beads (Sigma) were blocked with 0.5% BSA (w/v) in PBS. Magnetic beads were bound with 5 μg of the indicated antibody. Antibodies used are as follows: Total RNAP II (Rpb1 N-terminus): Santa Cruz sc-899; CDK7: Bethyl A300-405A. Crosslinked cells were lysed with lysis buffer 1 (50 mM Hepes (pH 7.3), 140 mM NaCl, 1 mM EDTA, 10% glycerol, 0.5% NP-40, and 0.25% Triton X-100) and washed with lysis buffer 2 (10 mM Tris-HCl (pH 8.0), 200 mM NaCl, 1 mM EDTA (pH 8.0) and 0.5 mM EGTA (pH 8.0)). […]
Illumina sequencing libraries were generated, and data were processed according to Lin et al., Cell (2012) 151:56-67. […] These criteria preserved only reads that mapped uniquely to the genome with 1 or fewer mismatches. […]

IC50 (Jurkat): < 100 nM
IC50 (CDK5/p25): 100 to 1000 nM
IC50 (MLK3): < 100 nM
SMILES: CN(C)C/C=C/C(=O)Nc1ccc(C(=O)Nc2cccc(Nc3ncc(C#N)c(-c4c[nH]c5ccccc45)n3)c2)cc1 [Formula I-53, (E)-N-(3-(5-cyano-4-(1H-indol-3-yl)pyrimidin-2-ylamino)phenyl)-4-(4-(dimethylamino)but-2-enamido)benzamide]

IC50 (CDK7 [1]): 20.9 nM
Percent inhibition, IRAK1^b (IRAK1): C (less than 50% inhibition)
IC50 (MLK3): < 100 nM
Percent inhibition, MLK3^b (MLK3; superscript b (footnote not given; tested at 100 nM and 1 μM)): C (less than 50% inhibition)
IC50 (HL60; blood cancer cell line): < 500 nM
IC50 (THP-1; blood cancer cell line): < 500 nM
IC50 (MV4-11; blood cancer cell line): < 500 nM
IC50 (RS4-11; blood cancer cell line): < 500 nM
IC50 (MDA-MB231; breast cancer cell line): < 500 nM
IC50 (MCF7; breast cancer cell line): < 500 nM
IC50 (T47D): 500 to 5000 nM
IC50 (SKBR3; breast cancer cell line): 500 to 5000 nM
IC50 (SK-ES): < 500 nM
SMILES: Cc1ccc(Nc2ncc(C)c(-c3c[nH]c4ccccc34)n2)cc1NC(=O)c1ccc(NC(=O)/C=C/CN(C)C)cc1 [Formula I-20]
IC50 (hTERT-HME1; immortalized normal mammary epithelial cell line): < 500 nM
IC50 (MCF10A): < 500 nM
IC50 (A673; Ewing's sarcoma cell line): < 500 nM
IC50 (Hs822T): < 500 nM
IC50 (Hs863T): < 500 nM
IC50 (RD-ES): < 500 nM
IC50 (SAOS): < 500 nM
IC50 (MNNG-HOS Cl#5): 500 to 5000 nM
IC50 (143B): > 5000 nM

SMILES: CN(C/C=C/C(=O)Nc1ccc(C(=O)Nc2cccc(Nc3ncc(Cl)c(-c4c[nH]c5ccccc45)n3)c2)cc1)CCCNC(=O)NCCOCCOCCOCCNC(=O)CCCCC1SCC2NC(=O)NC21 (stereo not drawn) [Formula I-49]
Pull down of CDK7 from cellular lysates (CDK7 [2]): pulls down CDK7
Interaction with CDK1, CDK2, CDK4, and CDK6 [3]: do not interact
Interaction with cyclin K (cyclin K): did interact

IC50 (HL60; Homo sapiens, HL-60, blood cancer cell line): < 500 nM
IC50 (THP-1; Homo sapiens, THP-1, blood cancer cell line): < 500 nM
IC50 (MV4-11; Homo sapiens, MV4-11, blood cancer cell line): < 500 nM
IC50 (RS4-11; Homo sapiens, RS4-11, blood cancer cell line): < 500 nM
IC50 (MDA-MB231; Homo sapiens, MDA-MB-231, breast cancer cell line): < 500 nM
IC50 (MCF7; Homo sapiens, MCF7, breast cancer cell line): 500 to 5000 nM
IC50 (T47D; Homo sapiens, T47D): > 5000 nM
IC50 (SKBR3; Homo sapiens, SK-BR-3, breast cancer cell line): < 500 nM
IC50 (SK-ES): < 500 nM
SMILES: CN1CC[C@H](c2c(O)cc(O)c3c(=O)cc(-c4ccccc4Cl)oc23)[C@H](O)C1 [Flavopiridol, flavopiridol, reference compound]
IC50 (hTERT-HME1; hTERT-HME1, immortalized normal mammary epithelial cell line): < 500 nM
IC50 (MCF10A; Homo sapiens, MCF-10A): < 500 nM
IC50 (A673; Homo sapiens, A673, Ewing's sarcoma cell line): < 500 nM
IC50 (Hs822T): > 5000 nM
IC50 (Hs863T): > 5000 nM
IC50 (RD-ES; RD-ES): < 500 nM
IC50 (SAOS): < 500 nM
IC50 (MNNG-HOS Cl#5): 500 to 5000 nM
IC50 (143B; Homo sapiens, 143B): 500 to 5000 nM
EC50 [4]: < 200 nM
RNAP II occupancy at the promoter proximal pause site (RNAP II occupancy): unaffected
